According to BindingDB's records for doi:10.1016/j.bioorg.2017.01.008 (University of Karachi, 2017):
“And” between values parts separate entries of the source, which are not always exact repeats. Equal values may be shown once.

Each compound was assayed against T1, Alkaline phosphatase, tissue-nonspecific isozyme (Bos taurus, UniProt P09487) (assay: Alkaline Phosphatase Inhibition Assay). Conditions: pH 9.8; 37 °C.
T1 sequence (P09487 whole entry): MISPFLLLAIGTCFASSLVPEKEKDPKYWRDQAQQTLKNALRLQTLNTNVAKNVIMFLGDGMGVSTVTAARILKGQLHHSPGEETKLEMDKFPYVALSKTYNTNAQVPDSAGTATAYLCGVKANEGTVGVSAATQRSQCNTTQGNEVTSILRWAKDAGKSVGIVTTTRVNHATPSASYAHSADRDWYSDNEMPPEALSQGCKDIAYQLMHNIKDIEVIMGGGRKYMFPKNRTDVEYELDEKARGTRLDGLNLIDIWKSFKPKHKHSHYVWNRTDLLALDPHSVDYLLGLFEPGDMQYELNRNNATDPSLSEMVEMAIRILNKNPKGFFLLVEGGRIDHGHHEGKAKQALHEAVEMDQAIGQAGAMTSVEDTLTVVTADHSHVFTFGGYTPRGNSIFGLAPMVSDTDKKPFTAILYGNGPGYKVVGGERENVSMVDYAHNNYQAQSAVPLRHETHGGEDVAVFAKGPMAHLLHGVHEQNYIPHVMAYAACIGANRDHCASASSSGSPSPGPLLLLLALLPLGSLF
Procedure: (§1) Alkaline phosphatase (b-TNAP, c-IAP purchased from Calzyme Laboratories, Inc. USA) inhibition assay of different cyclic sulfonamides was performed using a chemiluminescent substrate i.e. CDP-Star® (disodium 2-chloro-5-(4-methoxyspiro[1,2-dioxetane-3,2'-(5-chlorotricyclo[3.3.1.13.7]decan])-4-yl]-1-phenyl phosphate). With a slight modification in reported spectrophotometric procedure, an optimized conditions of the bioassay were developed [Hessle et al., Proc. Natl. Acad. Sci., 99:9445-9449]. Buffer solution for this bioassay was composed of 8 M DEA (pH 9.8) that contain 2.5 mM MgCl2 and 0.05 mM ZnCl2. First of all, the compounds were tested at the final concentration of 200 μM(with final DMSO 1% (v/v)). In bioassay procedure, the total volume (50 μL solution) contained 10 μL of tested compound, followed by the addition of 20 μL of TNAP (1:800 times diluted (0.8 unit/mL) enzyme in assay buffer) or 20 μL of IAP (1:800 times diluted (1 unit/mL) enzyme in assay buffer). The mixture was allowed to incubate for 3-5 min at 37 °C and luminescence was measured using microplate reader (BioTek FLx800, Instruments,Inc. USA). The reaction was initiated by the addition of 20 μL of CDP-star® (final concentration of 110 μM) and the assay mixture was incubated again at 37 °C. The change in the luminescence was measured after for 15 min of incubation. The activity of each compound was compared with total activity control (without any inhibitor). Levamisole (2 mM per well) and L-phenylalanine (4 mM per well) were used as a standard inhibitors for tissuenonspecific alkaline phosphatase (TNAP) and calf intestinal alkaline phosphatase (IAP), respectively.

| Compound | IC50 |
| --- | --- |
| CSc1ccc(C2NS(=O)(=O)c3cccc4c(N(C)C)ccc2c34)cc1 (stereo unspecified) [6-(Dimethylamino)-3-(4'-thiomethylphenyl)-2,3-dihydronaphtho[1,8-de][1,2]thiazine 1,1-dioxide (7e)] | 6630 nM |
| COc1cc(Br)c(C2NS(=O)(=O)c3cccc4c(N(C)C)ccc2c34)cc1O (stereo unspecified) [6-(Dimethylamino)-3-(5'-bromo-2'-hydroxy-3'-methoxyphenyl)-2,3-dihydronaphtho[1,8-de][1,2]thiazine 1,1-dioxide (7m)] | 440 nM and 680 nM |
| CN(C)c1ccc2c3c(cccc13)S(=O)(=O)NC2c1ccc(O)cc1 (stereo unspecified) [6-(Dimethylamino)-3-(4'-hydroxyphenyl)-2,3-dihydronaphtho[1,8-de][1,2]thiazine 1,1-dioxide (7d)] | 500 nM |
| COc1ccc(C2NS(=O)(=O)c3cccc4c(N(C)C)ccc2c34)c(OC)c1OC (stereo unspecified) [6-(Dimethylamino)-3-(2',3',4'-trimethoxyphenyl)-2,3-dihydronaphtho[1,8-de][1,2]thiazine 1,1-dioxide (7n)] | 1190 nM and 510 nM |
| Cc1ccc(C2NS(=O)(=O)c3cccc4c(N(C)C)ccc2c34)cc1 (stereo unspecified) [6-(Dimethylamino)-3-(4'-methylphenyl)-2,3-dihydronaphtho[1,8-de][1,2]thiazine 1,1-dioxide (7c)] | 460 nM |
| CN(C)c1ccc2c3c(cccc13)S(=O)(=O)NC2c1cccc([N+](=O)[O-])c1 (stereo unspecified) [6-(Dimethylamino)-3-(3'-nitrophenyl)-2,3-dihydronaphtho[1,8-de][1,2]thiazine 1,1-dioxide (7f)] | 1450 nM |
| CN(C)c1ccc2c3c(cccc13)S(=O)(=O)NC2c1cc(Cl)cc(Cl)c1O (stereo unspecified) [6-(Dimethylamino)-3-(3',5'-dichloro-2-hydroxyphenyl)-2,3-dihydronaphtho[1,8-de][1,2]thiazine 1,1-dioxide (7g)] | 270 nM |
| CN(C)c1ccc2c3c(cccc13)S(=O)(=O)NC2c1ccccc1 (stereo unspecified) [6-(Dimethylamino)-3-phenyl-2,3-dihydronaphtho[1,8-de][1,2]thiazine 1,1-dioxide (7a)] | 190 nM |

Second part, the compound after the results:

| IC50 | Compound |
| --- | --- |
| 200 nM | COc1cc(C2NS(=O)(=O)c3cccc4c(N(C)C)ccc2c34)ccc1O (stereo unspecified) [6-(Dimethylamino)-3-(4'-hydroxy-3'-methoxyphenyl)-2,3-dihydronaphtho[1,8-de][1,2]thiazine 1,1-dioxide (7j)] |
| 310 nM | COc1ccccc1C1NS(=O)(=O)c2cccc3c(N(C)C)ccc1c23 (stereo unspecified) [6-(Dimethylamino)-3-(2'-methoxyphenyl)-2,3-dihydronaphtho[1,8-de][1,2]thiazine 1,1-dioxide (7i)] |
| 270 nM and 1690 nM | COc1ccc(C2NS(=O)(=O)c3cccc4c(N(C)C)ccc2c34)cc1O (stereo unspecified) [6-(Dimethylamino)-3-(3'-hydroxy-4'-methoxyphenyl)-2,3-dihydronaphtho[1,8-de][1,2]thiazine 1,1-dioxide (7k)] |
| 420 nM | CN(C)c1ccc2c3c(cccc13)S(=O)(=O)NC2c1ccc(Cl)cc1 (stereo unspecified) [6-(Dimethylamino)-3-(4'-dichlorophenyl)-2,3-dihydronaphtho[1,8-de][1,2]thiazine 1,1-dioxide (7b)] |
| 80200 nM | N[C@@H](Cc1ccccc1)C(=O)O [L-[2,3,4,5,6-3H]phenylalanine] |
| 110 nM | CN(C)c1ccc2c3c(cccc13)S(=O)(=O)NC2c1ccc([N+](=O)[O-])cc1 (stereo unspecified) [6-(Dimethylamino)-3-(4'-nitrophenyl)-2,3-dihydronaphtho[1,8-de][1,2]thiazine 1,1-dioxide (7h)] |

What follows are compounds tested against Intestinal-type alkaline phosphatase (Bos taurus, UniProt P19111) (assay: Alkaline Phosphatase Inhibition Assay). Conditions: pH 9.8; 37 °C.
Procedure: as §1

Intestinal-type alkaline phosphatase, sequence (P19111 whole entry): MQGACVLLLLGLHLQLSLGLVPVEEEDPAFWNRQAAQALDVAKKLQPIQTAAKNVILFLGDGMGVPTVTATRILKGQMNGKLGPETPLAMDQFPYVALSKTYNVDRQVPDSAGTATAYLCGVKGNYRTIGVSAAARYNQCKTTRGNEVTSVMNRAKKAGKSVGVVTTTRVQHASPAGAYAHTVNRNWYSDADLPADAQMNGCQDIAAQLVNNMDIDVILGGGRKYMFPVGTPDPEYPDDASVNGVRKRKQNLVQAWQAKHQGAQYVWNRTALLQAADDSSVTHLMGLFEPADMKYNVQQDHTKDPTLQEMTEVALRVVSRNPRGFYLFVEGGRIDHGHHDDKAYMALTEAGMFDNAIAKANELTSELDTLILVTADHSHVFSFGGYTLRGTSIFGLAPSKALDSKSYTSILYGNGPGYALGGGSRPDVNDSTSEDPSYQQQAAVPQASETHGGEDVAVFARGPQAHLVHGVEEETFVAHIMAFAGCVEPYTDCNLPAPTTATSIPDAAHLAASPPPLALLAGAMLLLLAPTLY

| IC50 [nM] | Compound |
| --- | --- |
| 380 | CN(C)c1ccc2c3c(cccc13)S(=O)(=O)NC2c1cc(Cl)cc(Cl)c1O (stereo unspecified) [6-(Dimethylamino)-3-(3',5'-dichloro-2-hydroxyphenyl)-2,3-dihydronaphtho[1,8-de][1,2]thiazine 1,1-dioxide (7g)] |
| 1120 | CN(C)c1ccc2c3c(cccc13)S(=O)(=O)NC2c1ccccc1 (stereo unspecified) [6-(Dimethylamino)-3-phenyl-2,3-dihydronaphtho[1,8-de][1,2]thiazine 1,1-dioxide (7a)] |
